Test results taken from patent US11130768B2, “Bicyclic pyrazole derivatives” (Bayer Animal Health GMBH, priority 2017, dated 2021).
pEC50: −log10 of the molar value.

Assays:
[1] = tested on: Dirofilaria immitis microfilariae; test: In Vitro Assay 3: Dirofilaria immitis microfilariae (DIROIM L1), motility; conditions: 72 h, read-out: EC50 (reduction of motility)
Haemonchus contortus = conditions: 120 h, read-out: activity (larval mortality)
Method: Solvent: dimethyl sulfoxide
Approximately 40 larvae of the red stomach worm (Haemonchus contortus) are transferred into a test tube containing compound solution.
After 5 days the percentage of larval mortality is recorded. 100% efficacy means all larvae are killed, 0% efficacy means no larvae are killed.

C. elegans Slo-1a = C. elegans Slo-1a (Caenorhabditis elegans, UniProt Q95V25)
Method: In Vitro Assay 1: C. elegans Slo-1a—Action at a Recombinant C. elegans Cell Line
Generation of a Stable C. elegans CHO Cell Line
A CHO cell line was obtained from ATCC, code ATCC CRL-9096. For transfection with plasmid DNA to express C. elegans Slo-1a (accession number AAL28102) CHO cells were passaged to 40% confluence before adding the transfection solution to the cell culture. The transfection solution included 300 μL OptiMEM (Life Technologies, Nr.: 31985), 2 μL (=6 μg) of plasmid DNA containing the C. elegans Slo 1a gene and 9 μL FugeneHD (Promega, Nr.: E2311), and was added to the cells prior to incubation for 48 hours at 37° C., 5% CO2. The transfection medium was exchanged for the selection medium which contains additional G418 (2 mg/ml, Invitrogen, Nr.: 10131) and the cells were seeded into 384 well plates (300 cells/well). After a few weeks, the remaining surviving cells were tested with a voltage sensitive dye (Membrane Potential Assay Kit, Molecular Devices Nr.: R8034) for K+ channel expression. Positive cell clones were purified by the limited dilution technique. For this the clone with the highest and most robust signal in the voltage sensitive dye assay was further subcloned (incubated) in 384 well plates (0.7 cells/well) in order to obtain clonal purity. This generated a final stable CHO cell line expressing the C. elegans Slo-1a.
Cells were cultured at 37° C. and 5% CO2 in MEMalpha with Gutamax I (Invitrogen, Nr.: 32571), supplemented with 10% (v/v) heat inactivated fetal bovine serum (Invitrogen, Nr.: 10500), G418 (1 mg/ml, Invitrogen, Nr.: 10131). Cells were detached using Accutase (Sigma, Nr.: A6964).
Membrane Potential Measurements
Laboratory compound testing was performed on 384-well microtiter plates (MTPs, Greiner, Nr.: 781092). 8000 cells/well were plated onto 384-well MTPs and cultured for 20 to 24 hours at 37° C. and 5% CO2. After removal of the cell culture medium, the cells were washed once with tyrode (150 mM NaCl, 0.3 mM KCl, 2 mM CaCl2, 1 mM MgCl2, 0.8 mM NaH2PO4, 5 mM Glucose, 28 mM Hepes, pH 7.4) and then loaded with the voltage sensitive dye of the Membrane Potential Assay Kit diluted in tyrode for 1 h at room temperature.
After starting the measurement of fluorescence using a FLIPR Tetra (Molecular Devices, Exc. 510-545 nm, Emm. 565-625 nm), test compounds were added followed by the addition of KCl tyrode (final assay concentration: 70 mM KCl, 2 mM CaCl2, 1 mM MgCl2, 0.8 mM NaH2PO4, 5 mM Glucose, 28 mM Hepes, pH 7.4, including the voltage sensitive dye). The measurement was completed after 7 minutes.
The data were evaluated by using the ActivityBase XLfit software (IDBS) for curve fitting and calculation of the half-maximal effective concentration (EC50) and are reported as negative decadic logarithm (pE50).

[2] = tested on: Nippostrongylus brasiliensis; test: In Vitro Assay 2: Nippostrongylus brasiliensis (NIPOBR), acetylcholine esterase readout; conditions: adult worms, read-out: activity (reduction of AChE compared to negative control); for inhibition at 1 µg/mL: 1 μg/ml (1 ppm); for inhibition at 10 µg/mL: 10 μg/ml (10 ppm)
Method: In Vitro Assay 2: Nippostrongylus brasiliensis (NIPOBR)
Adult Nippostrongylus brasiliensis were washed with saline buffer containing 100 U/ml penicillin, 0.1 mg/ml streptomycin and 2.5 μg/ml amphotericin B. Test compounds were dissolved in DMSO and worms were incubated in medium in a final concentration of 10 μg/ml (10 ppm) respectively 1 μg/ml (1 ppm). An aliquot of the medium was used to determine the acetylcholine esterase activity in comparison to a negative control. The principle of measuring acetylcholine esterase as readout for anthelmintic activity was described in Rapson et al (1986) and Rapson et al (1987).

Cooperia curticei = conditions: 120 h, read-out: activity (larval mortality)
Method: In Vitro Assay 6: Cooperia curticei (COOPCU L3)
Solvent: dimethyl sulfoxide
Approximately 40 nematode larvae (Cooperia curticei) are transferred into a test tube containing the compound solution.
After 5 days percentage of larval mortality is recorded. 100% efficacy means all larvae are killed; 0% efficacy means no larvae are killed.

Sequence of C. elegans Slo-1a (Q95V25 whole entry): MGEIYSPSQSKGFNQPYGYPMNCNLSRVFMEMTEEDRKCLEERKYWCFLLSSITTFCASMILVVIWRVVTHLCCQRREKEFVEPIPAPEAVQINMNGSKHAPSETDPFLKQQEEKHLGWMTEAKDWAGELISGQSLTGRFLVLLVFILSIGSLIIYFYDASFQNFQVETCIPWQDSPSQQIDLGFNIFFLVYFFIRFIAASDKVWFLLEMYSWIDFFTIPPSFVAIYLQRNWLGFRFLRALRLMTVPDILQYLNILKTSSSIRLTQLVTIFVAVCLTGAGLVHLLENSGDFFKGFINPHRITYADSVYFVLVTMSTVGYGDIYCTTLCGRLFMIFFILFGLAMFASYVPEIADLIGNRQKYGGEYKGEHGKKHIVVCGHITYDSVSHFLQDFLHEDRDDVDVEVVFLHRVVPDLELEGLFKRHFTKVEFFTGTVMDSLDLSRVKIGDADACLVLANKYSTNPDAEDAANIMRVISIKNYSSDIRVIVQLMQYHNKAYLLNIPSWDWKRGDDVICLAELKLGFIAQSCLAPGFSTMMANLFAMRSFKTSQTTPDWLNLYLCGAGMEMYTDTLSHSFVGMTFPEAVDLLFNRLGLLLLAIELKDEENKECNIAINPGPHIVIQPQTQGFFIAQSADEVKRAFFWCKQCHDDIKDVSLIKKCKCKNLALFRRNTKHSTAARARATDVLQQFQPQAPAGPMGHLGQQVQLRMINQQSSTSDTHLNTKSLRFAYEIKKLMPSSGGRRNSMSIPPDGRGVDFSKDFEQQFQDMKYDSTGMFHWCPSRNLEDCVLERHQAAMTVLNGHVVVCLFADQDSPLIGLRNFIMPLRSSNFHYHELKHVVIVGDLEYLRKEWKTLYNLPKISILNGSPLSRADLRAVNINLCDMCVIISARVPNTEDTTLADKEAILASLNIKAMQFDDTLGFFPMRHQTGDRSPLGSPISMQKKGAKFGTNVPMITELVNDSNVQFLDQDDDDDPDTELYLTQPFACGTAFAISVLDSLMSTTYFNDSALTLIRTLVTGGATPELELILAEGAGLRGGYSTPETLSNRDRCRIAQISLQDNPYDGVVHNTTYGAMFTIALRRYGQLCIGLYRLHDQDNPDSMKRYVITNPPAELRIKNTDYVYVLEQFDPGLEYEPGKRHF

## Cc1nn2c(C(C)C)c(C(=O)N[C@H]3CCOc4ccccc43)sc2c1-c1cc(Cl)cc(Cl)c1 [Example 1, 7-(3,5-dichlorophenyl)-N-[(4S)-3,4-dihydro-2H-chromen-4-yl]-3-isopropyl-6-methylpyrazolo[5,1-b][1,3]thiazole-2-carboxamide]
[1]
  EC50: < 0.1 µg/mL
Haemonchus contortus
  mortality at 20 ppm: 90%
C. elegans Slo-1a
  pEC50: 7.50 to 8.50
[2]
  inhibition at 1 µg/mL: > 80%
  inhibition at 10 µg/mL: > 80%

## Cc1nn2c(C(C)C)c(C(=O)N[C@H]3CCOc4ccccc43)sc2c1-c1cccc(Cl)c1Cl [Example 2, 7-(2,3-dichlorophenyl)-N-[(4S)-3,4-dihydro-2H-chromen-4-yl]-6-methyl-3-(propan-2-yl)pyrazolo[5,1-b][1,3]thiazole-2-carboxamide]
[1]
  EC50: < 0.1 µg/mL
Cooperia curticei
  mortality at 20 ppm: 90%
C. elegans Slo-1a
  pEC50: > 8.50
[2]
  inhibition at 10 µg/mL: > 80%

## Cc1nn2c(C(C)C)c(C(=O)N[C@H]3CCOc4ccccc43)sc2c1-c1cccc(C(F)(F)F)c1F [Example 3, 7-[2-fluoro-3-(trifluoromethyl)phenyl]-N-[(4S)-3,4-dihydro-2H-chromen-4-yl]-6-methyl-3-(propan-2-yl)pyrazolo[5,1-b][1,3]thiazole-2-carboxamide]
[1]
  EC50: < 0.1 µg/mL
Haemonchus contortus
  mortality at 20 ppm: 90%
Cooperia curticei
  mortality at 20 ppm: 90%
C. elegans Slo-1a
  pEC50: > 8.50
[2]
  inhibition at 10 µg/mL: > 80%

## Cc1nn2c(C(C)C)c(C(=O)N[C@H]3CCOc4ccccc43)sc2c1-c1cccc(C(F)(F)F)c1Cl [Example 11, 7-[2-chloro-3-(trifluoromethyl)phenyl]-N-[(4S)-3,4-dihydro-2H-chromen-4-yl]-6-methyl-3-(propan-2-yl)pyrazolo[5,1-b][1,3]thiazole-2-carboxamide]
[1]
  EC50: < 0.1 µg/mL
Haemonchus contortus
  mortality at 20 ppm: 90%
Cooperia curticei
  mortality at 20 ppm: 100%
C. elegans Slo-1a
  pEC50: > 8.50

## Cc1nn2c(C(C)C)c(C(=O)N[C@H]3CCOc4ccccc43)sc2c1-c1c(Cl)cccc1Cl [Example 10, 7-(2,6-dichlorophenyl)-N-[(4S)-3,4-dihydro-2H-chromen-4-yl]-6-methyl-3-(propan-2-yl)pyrazolo[5,1-b][1,3]thiazole-2-carboxamide]
[1]
  EC50: < 0.1 µg/mL
C. elegans Slo-1a
  pEC50: > 8.50

## Cc1nn2c(C(C)C)c(C(=O)N[C@H]3CCc4ccccc43)sc2c1-c1cccc(Cl)c1Cl [Example 15, 7-(2,3-dichlorophenyl)-N-[(1S)-2,3-dihydro-1H-inden-1-yl]-6-methyl-3-(propan-2-yl)pyrazolo[5,1-b][1,3]thiazole-2-carboxamide]
[1]
  EC50: < 0.1 µg/mL
C. elegans Slo-1a
  pEC50: > 8.50

## Cc1nn2c(C(C)C)c(C(=O)N[C@H]3CCOc4ccccc43)sc2c1-c1cccc(OC(F)(F)F)c1F [Example 4, N-[(4S)-3,4-dihydro-2H-chromen-4-yl]-7-[2-fluoro-3-(trifluoromethoxy)phenyl]-3-isopropyl-6-methylpyrazolo[5,1-b][1,3]thiazole-2-carboxamide]
[1]
  EC50: < 0.1 µg/mL
Haemonchus contortus
  mortality at 20 ppm: 80%
Cooperia curticei
  mortality at 20 ppm: 80%
C. elegans Slo-1a
  pEC50: > 8.50
[2]
  inhibition at 10 µg/mL: > 80%

## Cc1nn2c(C(C)C)c(C(=O)N[C@H]3CCOc4ccccc43)sc2c1-c1ccc(F)c(N(C)C)c1F [Example 6, N-[(4S)-3,4-dihydro-2H-chromen-4-yl]-7-[3-(dimethylamino)-2,4-difluorophenyl]-6-methyl-3-(propan-2-yl)pyrazolo[5,1-b][1,3]thiazole-2-carboxamide]
[1]
  EC50: < 0.1 µg/mL
Cooperia curticei
  mortality at 20 ppm: 90%
C. elegans Slo-1a
  pEC50: > 8.50
[2]
  inhibition at 1 µg/mL: > 80%
  inhibition at 10 µg/mL: > 80%

## Cc1nn2c(C(C)C)c(C(=O)N[C@H]3CCOc4ccccc43)sc2c1-c1cc(Cl)cc(Cl)c1Cl [Example 12, N-[(4S)-3,4-dihydro-2H-chromen-4-yl]-6-methyl-3-(propan-2-yl)-7-(2,3,5-trichlorophenyl)pyrazolo[5,1-b][1,3]thiazole-2-carboxamide]
[1]
  EC50: < 0.1 µg/mL
Haemonchus contortus
  mortality at 20 ppm: 80%
Cooperia curticei
  mortality at 20 ppm: 100%
C. elegans Slo-1a
  pEC50: > 8.50

## Cc1nn2c(C(C)C)c(C(=O)N[C@H]3CCOc4ccccc43)sc2c1-c1ccc(F)c(F)c1F [Example 9]
[1]
  EC50: < 0.1 µg/mL
Cooperia curticei
  mortality at 20 ppm: 90%
C. elegans Slo-1a
  pEC50: 7.50 to 8.50

## Cc1nn2c(C(C)C)c(C(=O)N[C@H]3CCOc4ccccc43)sc2c1-c1cccc(N(C)C)c1F [Example 13, N-[(4S)-3,4-dihydro-2H-chromen-4-yl]-7-[3-(dimethylamino)-2-fluorophenyl]-6-methyl-3-(propan-2-yl)pyrazolo[5,1-b][1,3]thiazole-2-carboxamide]
[1]
  EC50: < 0.1 µg/mL
Cooperia curticei
  mortality at 20 ppm: 90%
C. elegans Slo-1a
  pEC50: > 8.50
[2]
  inhibition at 1 µg/mL: > 80%

## Cc1nn2c(C(C)C)c(C(=O)N[C@H]3CCOc4ccccc43)sc2c1-c1ccc(F)c(F)c1 [Example 8, 7-(3,4-difluorophenyl)-N-[(4S)-3,4-dihydro-2H-chromen-4-yl]-6-methyl-3-(propan-2-yl)pyrazolo[5,1-b][1,3]thiazole-2-carboxamide]
[1]
  EC50: < 0.1 µg/mL
C. elegans Slo-1a
  pEC50: 7.50 to 8.50

## Cc1nn2c(C(C)C)c(C(=O)N[C@H]3CCOc4ccccc43)sc2c1-c1cc(Cl)c(F)c(Cl)c1 [Example 5, 7-(3,5-dichloro-4-fluorophenyl)-N-[(4S)-3,4-dihydro-2H-chromen-4-yl]-3-isopropyl-6-methylpyrazolo[5,1-b][1,3]thiazole-2-carboxamide]
[1]
  EC50: < 0.1 µg/mL
Cooperia curticei
  mortality at 20 ppm: 90%
C. elegans Slo-1a
  pEC50: > 8.50
[2]
  inhibition at 1 µg/mL: > 80%
  inhibition at 10 µg/mL: > 80%

## Cc1nn2c(C(C)C)c(C(=O)N[C@H]3CCOc4ccccc43)sc2c1-c1ccc(Cl)c(Cl)c1 [Example 7, 7-(3,4-dichlorophenyl)-N-[(4S)-3,4-dihydro-2H-chromen-4-yl]-6-methyl-3-(propan-2-yl)pyrazolo[5,1-b][1,3]thiazole-2-carboxamide]
[1]
  EC50: < 0.1 µg/mL
C. elegans Slo-1a
  pEC50: 7.50 to 8.50
[2]
  inhibition at 10 µg/mL: > 80%

## Cc1nn2c(C(C)C)c(C(=O)N[C@H]3CCc4ccccc43)sc2c1-c1cc(Cl)c(F)c(Cl)c1 [Example 14, 7-(3,5-dichloro-4-fluorophenyl)-N-[(1S)-2,3-dihydro-1H-inden-1-yl]-6-methyl-3-(propan-2-yl)pyrazolo[5,1-b][1,3]thiazole-2-carboxamide]
[1]
  EC50: < 0.1 µg/mL
C. elegans Slo-1a
  pEC50: 7.50 to 8.50
[2]
  inhibition at 1 µg/mL: > 80%
  inhibition at 10 µg/mL: > 80%
